Consider 1 compound from patent US7605173B2, “Pharmaceutical liquid composition containing pyridone derivative” (KDL, Inc., priority 2002, dated 2009).

Data set [1] is described as follows: Dissolving Pirfenidone in diethylene glycol monoethyl ether (attainable concentration). The class given is physicochemical. The note with it: solvent diethylene glycol monoethyl ether. The protocol: That is, the diethylene glycol monoethyl ether was charged to a suitable container and warmed to 60° C. The Pirfenidone was added while stirring and a yellowish solution was obtained by continuing the stirring until the mixture was transparent. All the remaining ingredients as listed in Table 1 were dissolved in water at 60° C. and this solution was poured into the above Pirfenidone solution and the stirring was continued until mixed uniformly. The so obtained solution was protected from the light.
That is, the diethylene glycol monoethyl ether was charged to a suitable container and warmed to 60° C., and the Pirfenidone was added while stirring and a yellowish solution was obtained by continuing the stirring until the whole became transparent. Furthermore, the α-tocopherol was added and water was added while stirring until mixed uniformly. Then, the hydroxypropyl cellulose was added because of its necessity and stirred until a homogenous dispersion was formed. Furthermore, the dispersion was allowed to stand overnight until the particles of hydroxypropyl cellulose, the concentrating agent, were expanded, and finally the product was homogenized. The so obtained dispersion was allowed to stand overnight and a solution in the desired concentration was obtained. The solution was homogenized again and protected from light.

The conditions of data set [2]: cited from earlier work.

For `Cc1ccc(=O)n(-c2ccccc2)c1` [Pirfenidone, 5-methyl-1-phenyl-2-(1H)-pyridone], the “concentration of Pirfenidone that can be dissolved” value in data set [1] is given as about 25 % by weight. The solubility in water result in data set [2] is reported as “slightly soluble in water”.
